Laboratory results taken from patent publication US6998411B2, “2-Methylheptylisonicotinate and process for production thereof” (Council of Scientific and Industrial Research, priority 2001, dated 2006).
Converted amounts (≈) assume the structure as drawn. Like-named read-outs stand apart in the source and are kept apart here.

Experiments:
Format in all cases: cell-based
Proteus mirabilis [1] = assay: antibacterial activity, MIC
Shigella sp. [2] = assay: antibacterial activity, MIC
Klebsiella sp. [3] = assay: antibacterial activity, MIC
F. semitectum = assay: antifungal activity, MIC; conditions: Fusarium incarnatum
F. solani [4] = assay: antifungal activity, MIC; conditions: Fusarium solani
Shigella sp. [5] = assay: agar cup assay, zone of inhibition; conditions: purified compound, 10 μg of the substance
Description: (§1) 2-Methylheptylisonicotinate of formula 1 was bioassayed following agar cup assay method (Grammer, 1976). […] The antibacterial activity of the bioactive molecule was tested against dominant bacterial strains such as Bacillus subtilis, E. coli, Shigella sp., Klebsiella sp. and Proteus mirabilis. Maximum inhibition was recorded in E. coli (30 mm in diameter) and Proteus mirabilis (28 mm). […] Maximum zone of inhibition was recorded in Fusarium solani and F. semitechtum (26 mm with 10 μg of the substance), and in F. oxysporum inhibition zone was 25 mm. Similar inhibition was also observed in F. moniliformae and Rhizoctonia solani (24 mm and 22 mm) respectively (Tables 2, 3 & 4). The above antibiotic activity against dominant pathogens is the clear indication of the potential application of the compound for both agricultural and medical purposes.
as §1, with “2-Methylheptylisonicotinate” for “2-Methylheptylisonicotinate of formula”, “(Table” for “(Tables”, “4).” for “4). The above antibiotic activity against dominant pathogens is the clear indication of the potential application of the compound for both agricultural and medical purposes.”

Klebsiella sp. [6] = assay: agar cup assay, zone of inhibition; conditions: purified compound, 10 μg of the substance
Description: as §1
as §1, with “2-Methylheptylisonicotinate” for “2-Methylheptylisonicotinate of formula”, “(Table” for “(Tables”, “4).” for “4). The above antibiotic activity against dominant pathogens is the clear indication of the potential application of the compound for both agricultural and medical purposes.”

Bacillus subtilis [7] = assay: agar cup assay, zone of inhibition; conditions: purified compound, 10 μg of the substance
Description: as §1
as §1, with “2-Methylheptylisonicotinate” for “2-Methylheptylisonicotinate of formula”, “(Table” for “(Tables”, “4).” for “4). The above antibiotic activity against dominant pathogens is the clear indication of the potential application of the compound for both agricultural and medical purposes.”

Proteus mirabilis [8] = assay: agar cup assay, zone of inhibition; conditions: purified compound, 10 μg of the substance
Description: as §1
as §1, with “2-Methylheptylisonicotinate” for “2-Methylheptylisonicotinate of formula”, “(Table” for “(Tables”, “4).” for “4). The above antibiotic activity against dominant pathogens is the clear indication of the potential application of the compound for both agricultural and medical purposes.”

E. coli [9] = assay: agar cup assay, zone of inhibition; conditions: purified compound, 10 μg of the substance
Description: as §1
as §1, with “2-Methylheptylisonicotinate” for “2-Methylheptylisonicotinate of formula”, “(Table” for “(Tables”, “4).” for “4). The above antibiotic activity against dominant pathogens is the clear indication of the potential application of the compound for both agricultural and medical purposes.”

F. oxysporum = assay: agar cup assay, zone of inhibition; conditions: purified compound, 10 μg of the substance
Description: as §1
as §1, with “2-Methylheptylisonicotinate” for “2-Methylheptylisonicotinate of formula”, “(Table” for “(Tables”, “4).” for “4). The above antibiotic activity against dominant pathogens is the clear indication of the potential application of the compound for both agricultural and medical purposes.”

F. solani [10] = assay: agar cup assay, zone of inhibition; conditions: purified compound, 10 μg of the substance
Description: as §1
as §1, with “2-Methylheptylisonicotinate” for “2-Methylheptylisonicotinate of formula”, “(Table” for “(Tables”, “4).” for “4). The above antibiotic activity against dominant pathogens is the clear indication of the potential application of the compound for both agricultural and medical purposes.”

Fusarium moniliforme = assay: agar cup assay, zone of inhibition; conditions: purified compound, 10 μg of the substance
Description: as §1
as §1, with “2-Methylheptylisonicotinate” for “2-Methylheptylisonicotinate of formula”, “(Table” for “(Tables”, “4).” for “4). The above antibiotic activity against dominant pathogens is the clear indication of the potential application of the compound for both agricultural and medical purposes.”

Rhizoctonia solani [11] = assay: agar cup assay, zone of inhibition; conditions: purified compound, 10 μg of the substance
Description: as §1
as §1, with “2-Methylheptylisonicotinate” for “2-Methylheptylisonicotinate of formula”, “(Table” for “(Tables”, “4).” for “4). The above antibiotic activity against dominant pathogens is the clear indication of the potential application of the compound for both agricultural and medical purposes.”

F. semitechtum = assay: agar cup assay, zone of inhibition; conditions: purified compound, 10 μg of the substance
Description: as §1
as §1, with “2-Methylheptylisonicotinate” for “2-Methylheptylisonicotinate of formula”, “(Table” for “(Tables”, “4).” for “4). The above antibiotic activity against dominant pathogens is the clear indication of the potential application of the compound for both agricultural and medical purposes.”

Bacillus subtilis [12] = assay: antibacterial activity, MIC
F. oxysponim = assay: antifungal activity, MIC
Arthrobacter sp. = assay: antibacterial activity, MIC
E. coli [13] = assay: antibacterial activity, MIC; conditions: Escherichia coli
F. moniliformae = assay: antifungal activity, MIC
Rhizoctonia solani [14] = assay: antifungal activity, MIC
[15] = Fusarium oxysporum, read-out: MIC

CCCCCC(C)COC(=O)c1ccncc1 (stereo not shown) [Compound 1, 2-methylheptylisonicotinate]
MIC (Proteus mirabilis [1]): 40 µg/mL (≈ 170 µM)
MIC (Shigella sp. [2]): 60 µg/mL (≈ 255 µM)
MIC (Klebsiella sp. [3]): 50 µg/mL (≈ 212 µM)
MIC (F. semitectum): 20 µg/mL (≈ 85 µM)
MIC (F. solani [4]): 20 µg/mL (≈ 85 µM)
Inhibition zone (Shigella sp. [5]): 20 mm
Inhibition zone (Klebsiella sp. [6]): 18 mm
Inhibition zone (Bacillus subtilis [7]): 20 mm
Inhibition zone (Proteus mirabilis [8]): 28 mm
Inhibition zone (E. coli [9]): 30 mm
Inhibition zone (F. oxysporum): 25 mm
Inhibition zone (F. solani [10]): 26 mm
Inhibition zone (Fusarium moniliforme): 24 mm
Inhibition zone (Rhizoctonia solani [11]): 22 mm
Inhibition zone (F. semitechtum): 26 mm
MIC (Bacillus subtilis [12]): 50 µg/mL (≈ 212 µM)
MIC (F. oxysponim; F. oxysponim (F. oxysporum), listed as I): 45 µg/mL (≈ 191 µM)
MIC (F. oxysponim; [15]): 43 µg/mL (≈ 183 µM)
MIC (Arthrobacter sp.): 40 µg/mL (≈ 170 µM)
MIC (E. coli [13]): 70 µg/mL (≈ 297 µM)
MIC (F. moniliformae; listed as I): 42 µg/mL (≈ 178 µM)
MIC (F. moniliformae; read-out: MIC): 45 µg/mL (≈ 191 µM)
MIC (Rhizoctonia solani [14]): 20 µg/mL (≈ 85 µM)

NNC(=O)c1ccncc1 [Isoniazid, isonicotinic acid hydrazide, reference compound]
MIC (Proteus mirabilis [1]): 200 µg/mL (≈ 1460 µM)
MIC (Shigella sp. [2]): 300 µg/mL (≈ 2190 µM)
MIC (Klebsiella sp. [3]): 250 µg/mL (≈ 1820 µM)
MIC (F. semitectum): 300 µg/mL (≈ 2190 µM)
MIC (F. solani [4]): 300 µg/mL (≈ 2190 µM)
MIC (Bacillus subtilis [12]): 150 µg/mL (≈ 1090 µM)
MIC (F. oxysponim; [15]): 350 µg/mL (≈ 2550 µM)
MIC (Arthrobacter sp.): 150 µg/mL (≈ 1090 µM)
MIC (E. coli [13]): 250 µg/mL (≈ 1820 µM)
MIC (F. moniliformae; read-out: MIC): 200 µg/mL (≈ 1460 µM)
MIC (Rhizoctonia solani [14]): 250 µg/mL (≈ 1820 µM)
